In general, EC50 refers to the concentration giving half of the maximal effect.

Six compounds from patent US20150038430A1, “THERAPEUTIC PEPTIDOMIMETIC MACROCYCLES” (AILERON Therapeutics, Inc., priority 2008, published 2015) can be followed below.

What all share (assay type): cell-based, human
Common to all, as to settings: 24 h

For assay [1], the system named is Raji. The procedure: (§1) Cell viability assays shown in FIGS. 34-52 were performed according to a similar protocol. Cells were split at optimal cell density a day prior to the initiation of the study. The next day, cells were washed twice in serum-free Opti-MEM media and 4000 cells/well were added to each well in a final volume of […] Opti-MEM. For serum-free experiments, macrocycles were diluted from 2 mM stocks (100% DMSO) in sterile water to prepare 400 μM working solutions. A 40 μM solution was then generated by ten-fold dilution in assay buffer. The macrocycle and controls were then serially diluted two-fold in assay buffer in dosing plates to provide concentrations between 1.2 and 40 μM, respectively. For experiments in 2% human serum, macrocycles were diluted from 10 mM stocks (100% DMSO) in sterile water to prepare 1 mM working solutions. A 100 μM solution was generated by ten-fold dilution in assay buffer. The macrocycles and controls were then serially diluted two-fold in assay buffer in dosing plates to provide concentrations between 3 and 100 μM, respectively. 50 μl of each dilution was then added to the appropriate wells of the test plate to achieve final concentrations of the macrocycle between 0.6 to 20 μM (for serum free experiment) or 1.5 to 50 μM (for 2% serum experiment), respectively. Controls included wells without macrocycles containing the same concentration of DMSO as the macrocycle-containing wells, wells containing 0.1% Triton X-100, and wells containing no cells. Plates were incubated for 24 hours at 37° C. in a humidified 5% CO2 atmosphere. At the end of a 24 hr incubation period, a CellTiter-Glo Luminescent Cell Viability Assay was performed according to manufacturer's instructions (Promega, catalog #G7571) and the luminescence was measured using a BIO-TEK synergy HT Plate reader. Values were plotted as percent viable, i.e. as a percentage of the negative control value (derived from cells exposed to DMSO only). All assays were performed in duplicate.
(§2) The following tables summarize the EC50 values (μM) observed with peptidomimetic macrocycles of the invention in various cell lines: […]

The subject of assay [2] is MDA-MB231-Met. The procedure: as §1, §2
For assay [3], the system named is SEMK2. The procedure: as §1, §2
Assay [4] concerns Jurkat. The procedure:
as §1, §2

The test system of assay [5] is Molt-4. The procedure:
as §1, §2

The subject of assay [6] is DHL-6. The procedure: as §1, §2
The subject of assay [7] is A375. The procedure:
as §1, §2

In assay [8] the test system is PC3. The procedure: as §1, §2
For assay [9], the system named is OVCAR8. The procedure: as §1, §2
Assay [10] relates to MM1S. The procedure:
as §1, §2

For assay [11], the system named is NCI-H82 (SCLC-MCL1+). As to the method:
as §1, §2

Assay [12] has as its system RS4;11. As to the method:
as §1, §2

Numbered stars: 1 amine (or outer) side, 2 acyl side, 3 side chain; on linkers, the order of the positions; unused ones are H or OH. Bridge positions count the residues as written; N and C are the ends. Square brackets hold non-standard residues; d marks the D form. Peptide text beside a SMILES is read from it. * marks the point of attachment. ξ: configuration not given here. ξαMeNle(6-ylidene) = CC(CCCC=[*:3])(N[*:1])C(=O)[*:2]; Nle = CCCC[C@H](N)C(=O)O; Aib = CC(C)(N)C(=O)O; Propionyl = CCC(=O)* Where only a bound is given, the exact number is not on record here.

For `CC[C@H](C)[C@H](NC(C)=O)C(=O)N[C@@H](Cc1c[nH]c2ccccc12)C(=O)N[C@H](C(=O)N[C@@H](C)C(=O)N[C@@H](CCC(N)=O)C(=O)N[C@@H](C)C(=O)N[C@@H](CC(C)C)C(=O)N[C@@H](CCCNC(=N)N)C(=O)NC1(C)CCCC=CCCCC(C)(C(=O)N[C@@H](Cc2ccccc2)C(=O)N[C@@H](CC(N)=O)C(=O)N[C@@H](C)C(=O)N[C@@H](Cc2ccc(O)cc2)C(=O)N[C@@H](Cc2ccc(O)cc2)C(=O)N[C@@H](C)C(=O)N[C@@H](CCCNC(=N)N)C(=O)N[C@@H](CCCNC(=N)N)C(N)=O)NC(=O)[C@H](CC(N)=O)NC(=O)CNC(=O)[C@H]([C@@H](C)CC)NC1=O)[C@@H](C)CC` (some centres unmarked) [SP-25] (Ac-IWIAQALR[ξαMeNle(6-ylidene)]IGN[ξαMeNle(6-ylidene)]FNAYYARR-NH2; staple 9-13), the EC50 came to 1800 nM in assay [1]; 1000 nM in assay [2]; 900 nM in assay [3]; 500 nM in assay [4]; 900 nM in [5]; 600 nM in assay [6]. Also, the EC50 is 1000 nM in [7]; 600 nM in assay [8]; 1400 nM in assay [9]; 600 nM in [10]; 500 nM in assay [11]; 1000 nM in assay [12].

As for `CCCC[C@H](NC(=O)C1(C)CCCC=CCCCC(C)(NC(=O)[C@H](C)NC(=O)[C@H](CC(C)C)NC(=O)[C@H](Cc2c[nH]cn2)NC(=O)[C@H](CCCNC(=N)N)NC(=O)[C@H](C)NC(=O)[C@@H](NC(=O)[C@H](CC(N)=O)NC(=O)[C@H](CCCNC(=N)N)NC(=O)CC)[C@@H](C)CC)C(=O)N[C@@H](C(C)C)C(=O)NCC(=O)N[C@@H](CC(=O)O)C(=O)N1)C(=O)NC(C)(C)C(=O)N[C@@H](CCCNC(=N)N)C(=O)N[C@@H](CO)C(=O)N[C@H](C(N)=O)[C@@H](C)CC` (some centres unmarked) [SP-10] (Propionyl-RNIARHLA[ξαMeNle(6-ylidene)]VGD[ξαMeNle(6-ylidene)][Nle][Aib]RSI-NH2; staple 9-13), the EC50 came to 5000 nM in assay [1]; 3100 nM in [2]; 8200 nM in assay [3]; 1900 nM in assay [4]; 1900 nM in [5]; 1900 nM in [6]. For the same compound, the EC50 in assay [7] was 5200 nM; in assay [8], 6000 nM; in assay [9] it was 8100 nM; in assay [10], 2500 nM; in [11], 5700 nM; in assay [12], 3500 nM.

For `CC[C@H](C)[C@H](NC(=O)[C@H](Cc1c[nH]c2ccccc12)NC(=O)[C@H](CCCNC(=N)N)NC(C)=O)C(=O)N[C@@H](C)C(=O)N[C@@H](CCC(N)=O)C(=O)N[C@@H](C)C(=O)N[C@@H](CC(C)C)C(=O)N[C@@H](CCCNC(=N)N)C(=O)NC1(C)CCCC=CCCCC(C)(C(=O)N[C@@H](Cc2ccccc2)C(=O)N[C@@H](CC(N)=O)C(=O)N[C@@H](C)C(=O)N[C@@H](Cc2ccccc2)C(=O)N[C@@H](Cc2ccc(O)cc2)C(=O)N[C@@H](C)C(=O)N[C@@H](CCCNC(=N)N)C(=O)N[C@@H](CCCNC(=N)N)C(N)=O)NC(=O)[C@H](CC(=O)O)NC(=O)CNC(=O)[C@H]([C@@H](C)CC)NC1=O` (some centres unmarked) [SP-15] (Ac-RWIAQALR[ξαMeNle(6-ylidene)]IGD[ξαMeNle(6-ylidene)]FNAFYARR-NH2; staple 9-13), the EC50 in assay [1] was determined as 1000 nM; in assay [2], 900 nM; in [3], 800 nM; in assay [4], 400 nM; in assay [5] it was 700 nM; in [6], 500 nM. The EC50 in assay [7] was determined as 800 nM; in [8], 2100 nM; in assay [9], 1800 nM; in assay [10], 600 nM; in assay [12], 1700 nM.

With `CC[C@H](C)[C@H](NC(=O)[C@H](Cc1c[nH]c2ccccc12)NC(=O)[C@H](CCCNC(=N)N)NC(C)=O)C(=O)N[C@@H](C)C(=O)N[C@@H](CCC(N)=O)C(=O)N[C@@H](C)C(=O)N[C@@H](CC(C)C)C(=O)N[C@@H](CCCNC(=N)N)C(=O)NC1(C)CCCC=CCCCC(C)(C(=O)N[C@@H](Cc2ccccc2)C(=O)N[C@@H](CC(N)=O)C(=O)N[C@@H](C)C(=O)N[C@@H](Cc2ccc(O)cc2)C(=O)N[C@@H](Cc2ccc(O)cc2)C(=O)N[C@@H](C)C(=O)N[C@@H](CCCNC(=N)N)C(=O)N[C@@H](CCCNC(=N)N)C(N)=O)NC(=O)[C@H](CC(N)=O)NC(=O)CNC(=O)[C@H]([C@@H](C)CC)NC1=O` (some centres unmarked) [SP-23] (Ac-RWIAQALR[ξαMeNle(6-ylidene)]IGN[ξαMeNle(6-ylidene)]FNAYYARR-NH2; staple 9-13), the EC50 was found to be 1800 nM in assay [1]; 600 nM in [2]; 1000 nM in [3]; 900 nM in [4]; 600 nM in assay [5]; 500 nM in assay [6]. Moreover, the EC50 in assay [7] worked out at 1000 nM; in assay [8], 2000 nM; in assay [9], 900 nM; in assay [10] it was 700 nM; in [11], 600 nM; in assay [12], 1000 nM.

Take `CC[C@H](C)[C@H](NC(C)=O)C(=O)N[C@@H](Cc1c[nH]c2ccccc12)C(=O)N[C@H](C(=O)N[C@@H](C)C(=O)N[C@@H](CCC(N)=O)C(=O)N[C@@H](C)C(=O)N[C@@H](C)C(=O)N[C@@H](CCCNC(=N)N)C(=O)NC1(C)CCCC=CCCCC(C)(C(=O)N[C@@H](C)C(=O)N[C@@H](CC(N)=O)C(=O)N[C@@H](C)C(=O)N[C@@H](Cc2ccc(O)cc2)C(=O)N[C@@H](Cc2ccc(O)cc2)C(=O)N[C@@H](C)C(=O)N[C@@H](CCCNC(=N)N)C(=O)N[C@@H](CCCNC(=N)N)C(N)=O)NC(=O)CNC(=O)[C@H]([C@@H](C)CC)NC(=O)[C@H](CC(=O)O)NC1=O)[C@@H](C)CC` (some centres unmarked) [SP-24] (Ac-IWIAQAAR[ξαMeNle(6-ylidene)]DIG[ξαMeNle(6-ylidene)]ANAYYARR-NH2; staple 9-13): the 50% effective concentration (EC50) in assay [2], in assay [4], in assay [7], in assay [8], in assay [9] and in assay [11] was > 20000 nM in each case.

Take `CCC(=O)N[C@@H](CCCNC(=N)N)C(=O)N[C@@H](CC(N)=O)C(=O)N[C@H](C(=O)N[C@@H](C)C(=O)N[C@@H](CCCNC(=N)N)C(=O)N[C@@H](Cc1c[nH]cn1)C(=O)N[C@@H](CC(C)C)C(=O)N[C@@H](C)C(=O)NC1(C)CCCC=CCCCC(C)(C(=O)N[C@@H](Cc2ccccc2)C(=O)N[C@@H](C)C(=O)N[C@@H](CCCNC(=N)N)C(=O)N[C@@H](CO)C(=O)N[C@H](C(N)=O)[C@@H](C)CC)NC(=O)[C@H](CC(=O)O)NC(=O)C(C)(C)NC(=O)[C@H](C(C)C)NC1=O)[C@@H](C)CC` (some centres unmarked) [SP-9] (Propionyl-RNIARHLA[ξαMeNle(6-ylidene)]V[Aib]D[ξαMeNle(6-ylidene)]FARSI-NH2; staple 9-13): the EC50 in assay [1] turned out to be 5700 nM; in assay [2] it was 2900 nM; in assay [3] it was 8100 nM; in assay [4] it was 1900 nM; in [5], 1000 nM; in assay [6], 2700 nM. Moreover, the EC50 in assay [7] stood at 4100 nM; in assay [8], 5700 nM; in assay [9] it was 7100 nM; in assay [10] it was 5500 nM; in [11] it was 4200 nM; in assay [12], 4300 nM.
